Experimental data taken from paper PMC6696115, “Characterization of Antimicrobial, Antioxidant, and Leishmanicidal Activities of Schiff Base Derivatives of 4-Aminoantipyrine” (Molecules, 2019).
Converted amounts (≈) assume the structure as drawn.

Experiments:
RAW 264.7 cells = test: cell viability, MTT dye assay; type: cell-based, murine; conditions: 48 h
Protocol: The specificity and selectivity for the pathogen target is a key point for any potential drug.
The medium was renewed once a week. The viability was determined using MTT (thiazolyl blue tetrazolium bromide) dye assay as described previously for leishmanicidal activity assessment, with some variations. Here, 5 × 10^4 cells/well in a final volume of 100 µL were deposited into a 96-well plate in triplicate. Saponin (2 and 4 mg/mL) and untreated cells were used as the positive control and negative control, respectively. Schiff bases were dissolved in DMSO to obtain different serial concentrations (0.01–2000 µM). […] Cells were pelleted by centrifugation at 4400 rpm for 10 minutes and the media was removed. Next, 100 µL/well of DMSO were added and the absorbance at 570 nm was recorded. A reference wavelength of 630 nm was used for background subtraction.

[1] = tested on: Candida albicans ATCC 10231; test: antimicrobial serial microdilution, C. albicans; type: cell-based; conditions: for MIC: Candida albicans, ATCC10231, serial microdilution, 35 °C, 48 h
Protocol: (§1) The in vitro antifungal and antimicrobial activities were determined by testing the Schiff bases against the fungi Saccharomyces cerevisiae, Candida albicans, and Aspergillus niger and the bacteria Staphylococcus aureus, Enterococcus faecalis (Gram-positive), Pseudomonas aeruginosa, and Escherichia coli (Gram-negative).
(§2) The bacterial inoculum was prepared by emulsifying overnight colonies from an agar medium in broth (Mueller–Hinton broth). The suspensions were adjusted to a final organism density of 5 × 10^5 colony former units (cfu)/mL. […] The emulsifying of A. niger cultures was done by pouring 5 mL of saline and 0.1% of polysorbate 80 over the Petri dishes. Then, 100 µL of this suspension were diluted in 5 mL of saline and adjusted to an optical density of 0.1 at 530 nm. For S. cerevisiae, fresh exponential YPAD (yeast extract 1%, peptone 2%, adenine 0.004%, […]) cultures were adjusted to an optical density of 0.5 at 600 nm, and then diluted to the equivalent of 1 × 10^4 cells/mL (10^−3 dilution). Stock solutions of Schiff bases were prepared by dissolving them in DMSO at 10 mg/mL. […] The range of concentrations used was empirically selected for each organisms and the Schiff base. Drug sensitivities were assayed by serial dilutions in 96-well plates as previously described. A row with media and cells but without drug was the positive control. The blank was done by preparing a row with media and drugs, but without cells. Plates were fitted with a tight lid before incubation to prevent desiccation. […] The minimum bactericidal concentration (MBC) and fungicidal concentration (MFC) were determined by spreading 100 µL of culture from each well onto a plate (Mueller–Hinton agar for bacteria, Sabouraud dextrose agar for fungi except S. cerevisiae, and YPAD for S. cerevisiae).

[2] = tested on: Enterococcus faecalis ATCC 29212; test: antimicrobial serial microdilution, E. faecalis; type: cell-based
Protocol: as §1, §2

P. aeruginosa ATCC 27853 = test: antimicrobial serial microdilution, P. aeruginosa; type: cell-based; conditions: Pseudomonas aeruginosa, ATCC27853, 37 °C, 24 h
Protocol: as §1, §2

[3] = tested on: Escherichia coli ATCC 25922; test: antimicrobial serial microdilution, E. coli; type: cell-based
Protocol: as §1, §2

[4] = tested on: Staphylococcus aureus ATCC 29213; test: antimicrobial serial microdilution, S. aureus; type: cell-based; conditions: for MIC: Staphylococcus aureus, ATCC29213, serial microdilution, 37 °C, 24 h
Protocol: as §1, §2

[5] = tested on: Aspergillus niger ATCC 6275; test: antimicrobial serial microdilution, A. niger; type: cell-based; conditions: for MIC: Aspergillus niger, ATCC6275, serial microdilution, 96-well plates, 35 °C, 48 h, max 2% DMSO
Protocol: as §1, §2

[6] = tested on: S. cerevisiae (backgrounds W303 and BY4741); test: antimicrobial serial microdilution, S. cerevisiae; type: cell-based, Saccharomyces cerevisiae; conditions: for MIC: read-out: MIC S. cerevisiae
Protocol: as §1, §2

[7] = tested on: promastigotes from L. mexicana (M379); test: leishmanicidal activity, MTT colorimetric assay; type: cell-based; conditions: Leishmania mexicana, 48 h exposure, 1% DMSO
Protocol: Leishmanicidal activities of all Schiff bases were evaluated by measuring promastigote mitochondrial activity using MTT colorimetric assay as described previously. […] The medium was renewed every four days. Parasite density was determined in a Neubauer chamber.
Into each well of a 96-well cell culture dish was dispensed 1 × 10^6 parasites. A stock solution of each of the Schiff Base was prepared in DMSO, and serial dilutions were added to the parasite suspension, keeping the solvent concentration at 1%. The final volume was 100 µL for each well and triplicate conditions were carried out. Pentamidine treatment (100 µg/mL) and untreated parasites were used as positive control and negative control, respectively. After exposure to the compounds for 48 h in culture medium, 10 µL of a solution of 5 mg/mL MTT dissolved in PBS was added to each well. […] Later, the plate was centrifuged at 4400 rpm for 10 min and the culture medium was then aspirated. Next, 100 µL of DMSO were added into each well to solubilize the formazan and the plate was shaken for 5 min. The colored formazan salt was measured by recording changes in absorbance at 570 nm using a microplate reader, a BioTek Synergy HT spectrophotometer. A reference wavelength of 630 nm was used to subtract background. Optical densities were analyzed as the quantity of formazan is directly proportional to the number of viable parasites. Data were analyzed with the statistical software GraphPad Prism.

[8] = DPPH radical scavenging assay; type: biochemical; conditions: for IC50: 30 min, room temperature, dark, absorbance 515 nm
Protocol: This was used immediately. The experimental procedure was adapted from the literature. Briefly, in a 96-well plate, 100 µL of solution of DPPH (2, 2-diphenyl-1-picrylhydrazyl) radical (0.2 mM in methanol) was added to 100 µL of methanolic solutions of 3a–j, 4, or 5, prepared as serial two-fold dilutions from the stock solution. Standards were also prepared in the same concentrations.
The percentage of DPPH scavenging was then calculated by using the following formula: % DPPH scavenging=100∗Asample+DPPH−Asample blank/ADPPH−Asolvent

[9] = tested on: S. cerevisiae wild-type (W303 and BY4741 backgrounds); test: drop test, wild-type yeast; type: cell-based, Saccharomyces cerevisiae
Protocol: Since the Schiff bases have a limited solubility in dimethyl sulfoxide (DMSO), first, we tested the toxicity of DMSO against the selected microorganism. […] Wild-type cells from W303 background seem to be more resistant, and sensitivity is observed at around 4% DMSO.
(§3) Next, we wanted to evaluate the oxidative activity. To do this, drop test assays were performed with wild-type (W303 and BY4741 backgrounds) and sod1 (BY4741 background) yeast cells in the presence of 200 µg/mL of the analyzed Schiff bases (Figure 3). The SOD1 gene encodes superoxide dismutase 1, an enzyme with a major role in detoxifying ROS species generated during metabolism or because of environmental exposure. sod1 mutant cells are unprotected against oxidative agents, decreasing survival in their presence. […] Also, wild-type cells are shown as control, unaffected by the Schiff bases.
(§4) For the drop test with S. cerevisiae, wild-type strain (background W303), and wild type and sod1 mutant cells (background BY4741) were grown overnight in YPAD media until an optical density of 0.5 at 600 nm was reached (equivalent to 1 × 10^7 cells/mL). Three serial dilutions were prepared and 5 µL of each was spotted onto a plate (approximately 1 × 10^5, 1 × 10^4, 1 × 10^3, and 1 × 10^2 cells/spot). YPAD plates were supplemented with 200 µg/mL of each Schiff base, and one plate supplemented with 2% DMSO and one plate with YPAD without any drug were used as controls. Plates were incubated at 25 °C for 24, 48, and 72 h.

S. cerevisiae [10] = tested on: S. cerevisiae; parameters: method as in PMID 24028688; conditions: published data; cited from earlier work
S. cerevisiae [11] = test: biocidal/biostatic evaluation, plating on drug-free media, S. cerevisiae; type: cell-based, Saccharomyces cerevisiae; conditions: 24 h exposure, then plated on media free of drug
Protocol: as §2, with “cells.” for “cells. Plates were fitted with a tight lid before incubation to prevent desiccation.”

[12] = tested on: S. cerevisiae sod1 mutant cells (background BY4741); test: drop test, sod1 mutant yeast; type: cell-based, Saccharomyces cerevisiae; conditions: 200 µg/mL, 48 h, 25 °C, compared to control
Protocol: as §3, §4

[13] = tested on: S. cerevisiae sod1 mutant (BY4741); test: growth inhibition (OD600) of sod1 mutant yeast, oxidative effect; type: cell-based, Saccharomyces cerevisiae; conditions: sod1 mutant BY4741, unit not given
Protocol: (§5) Next, we wanted to evaluate the oxidative activity. To do this, drop test assays were performed with wild-type (W303 and BY4741 backgrounds) and sod1 (BY4741 background) yeast cells in the presence of 200 µg/mL of the analyzed Schiff bases (Figure 3). The SOD1 gene encodes superoxide dismutase 1, an enzyme with a major role in detoxifying ROS species generated during metabolism or because of environmental exposure. sod1 mutant cells are unprotected against oxidative agents, decreasing survival in their presence.
(§6) (A) Drop test of serial dilution of yeast cell cultures (wild type from genetic background W303, wild type from genetic background BY4741, and sod1 mutant from genetic background BY4741) exposed to Schiff bases at 200 µg/mL. A control without drug and with 2% DMSO are included.
as §2

[14] = tested on: S. cerevisiae wild type (BY4741); test: growth inhibition (OD600) of wild-type yeast, oxidative effect; type: cell-based, Saccharomyces cerevisiae; conditions: unit not given
Protocol: as §5, §6, §2

[15] = Enterococcus faecalis, ATCC29212, serial microdilution, 37 °C, 24 h
[16] = noninhibitory concentration, serial microdilution, 37 °C, 24 h
[17] = Escherichia coli, ATCC25922, serial microdilution, 37 °C, 24 h
[18] = Saccharomyces cerevisiae, serial microdilution, 35 °C, 48 h

Compound | melting point [°C] | MIC [1] [µg/mL] | MIC [2, 15] [µg/mL] | MIC (P. aeruginosa ATCC 27853) [µg/mL] | MIC [3, 17] [µg/mL] | MIC [4] [µg/mL] | MIC [5] [µg/mL] | MIC [6, 18] [µg/mL] | IC50 [7] [µM] | IC50 [8] [µM] | other results
Cc1c(N=Cc2ccccc2)c(=O)n(-c2ccccc2)n1C [Compound 3a, 4-Benzylideneamino-1,5-dimethyl-2-phenyl-1H-pyrazol-3(2H)-one] | 176.8 to 177.2 | > 200 | 32.3 ± 11.7 (≈ 111 µM) | > 200 | > 200 | > 200 | > 200 | > 200 | > 200 | > 200 | % Live Cells (RAW 264.7 cells; RAW 264.7, exposure to 400 µM): 27.1 ± 3.4%; IC50 [2, 15]: 12.2 µg/mL (≈ 41.9 µM); NIC E. faecalis [2, 16]: 3.6 ± 0.7 µg/mL
C[S+](C)[O-] [DMSO, dimethyl sulfoxide] |  |  |  |  |  |  |  |  |  |  | IC50 DMSO C. albicans ([1]; DMSO toxicity): 8.50 ± 0.5%; MIC DMSO C. albicans ([1]; DMSO toxicity): 14.98 ± 0.6%; NIC DMSO C. albicans ([1]; DMSO toxicity): 4.94 ± 0.5%; IC50 DMSO E. faecalis ([2]; DMSO toxicity): 8.66 ± 0.6%; MIC DMSO E. faecalis ([2]; DMSO toxicity): 20.02 ± 1.3%; NIC DMSO E. faecalis ([2]; DMSO toxicity): 3.68 ± 0.2%; NIC DMSO E. coli ([3]; DMSO toxicity): 11.95 ± 2.9%; IC50 DMSO S. aureus ([4]; DMSO toxicity): 20.36 ± 5.2%; MIC DMSO S. aureus ([4]; DMSO toxicity): 32.64 ± 6.9%; NIC DMSO S. aureus ([4]; DMSO toxicity): 8.52 ± 0.9%; DMSO concentration at which cells begin to show diminished viability (drop test) ([9]; wild-type cells, BY4741 strain): ≥ 3%; DMSO concentration at which sensitivity is observed (drop test) ([9]; wild-type cells, W303 background): around 4%; DMSO concentration significantly toxic for S. cerevisiae (S. cerevisiae [10]): over 2%; IC50 DMSO A. niger ([5]; DMSO toxicity): 4.36 ± 2.0%; MIC DMSO A. niger ([5]; DMSO toxicity): 19.22 ± 1.3%; NIC DMSO A. niger ([5]; DMSO toxicity): 1.78 ± 0.4%; IC50 DMSO S. cerevisiae ([6]; DMSO toxicity): 35.62 ± 1.0%; MIC DMSO S. cerevisiae ([6]; DMSO toxicity): 71.47 ± 1.7%; NIC DMSO S. cerevisiae ([6]; DMSO toxicity): 5.04 ± 1.1%
COc1ccc(C=Nc2c(C)n(C)n(-c3ccccc3)c2=O)cc1O [Compound 3e, 4-(3-Hydroxy-4-methoxybenzylideneamino)-1,5-dimethyl-2-phenyl-1H-pyrazol-3(2H)-one] | 246.8 to 247.2 | > 200 | > 200 | > 200 | > 200 | > 200 | > 200 | > 200 | > 200 | > 200 | % Live Cells (RAW 264.7 cells; RAW 264.7, exposure to 300 µM (limited solubility)): 27.1 ± 0.8%
Cc1c(N=CC=Cc2ccccc2)c(=O)n(-c2ccccc2)n1C [Compound 5, 4-Phenylallylideneamino-1,5-dimethyl-2-phenyl-1H-pyrazol-3(2H)-one] | 165.5 to 165.9 | > 200 | > 200 | > 200 | 22.6 ± 14.1 (≈ 71.2 µM) | > 200 | > 200 | 76.7 ± 5.7 (≈ 242 µM) | 81.5 ± 12.5 | > 200 | inhibitory mechanism (fungicidal or fungistatic) (S. cerevisiae [11]): fungicidal; sensitivity of sod1 cells in drop test [12]: sensitive; NIC sod1 [13]: 19.5 ± 0.8; MIC sod1 ([13]; in µg/mL): 39.4 ± 0.9; IC50 [3, 17]: 12.4 µg/mL (≈ 39.1 µM); NIC E. coli [3, 16]: 5.1 ± 2.4 µg/mL; NIC Wt [14]: 22.6 ± 0.6; MIC Wt ([14]; in µg/mL): 65.2 ± 0.2; effect on wild-type cells in drop test ([9]; 200 µg/mL, 48 h, 25 °C): unaffected; IC50 ([6]; Saccharomyces cerevisiae, serial microdilution, 35 °C, 48 h, read-out: IC50 S. cerevisiae (converted)): 22.8 µg/mL (≈ 71.8 µM); NIC S. cerevisiae ([6]; noninhibitory concentration, serial microdilution, 35 °C, 48 h): 6.6 ± 0.7 µg/mL; antioxidant activity detected in the DPPH assay ([8]; statement in words): no significant antioxidant activity
COc1cc(C=Nc2c(C)n(C)n(-c3ccccc3)c2=O)cc(OC)c1O [Compound 3j, 4-(4-Hydroxy-3,5-dimethoxybenzylideneamino)-1,5-dimethyl-2-phenyl-1H-pyrazol-3(2H)-one] | 259.2 to 260.7 | > 200 | > 200 | > 200 | > 200 | > 200 | > 200 | > 200 | > 200 | 15.7 ± 3.2 | 
